Measured values: the NIST ThermoML archive (doi:10.1021/je300853z)
± gives the expanded uncertainty stated by the source.

Experiment: excess molar enthalpy (molar enthalpy of mixing); xn = mol fraction of the nth substance listed
Conditions: 101 kPa, Liquid, Calvet calorimetry

CCCCCCCC[n+]1ccc2ccccc2c1.N#C[S-] [2-octylisoquinolinium thiocyanate] + O
Conditions | excess molar enthalpy [kcal/mol]
298.15 K, x1 = 0.2433 | 0.0308 ± 0.00043
298.15 K, x1 = 0.258 | 0.0292 ± 0.000406
298.15 K, x1 = 0.2745 | 0.0249 ± 0.000382
298.15 K, x1 = 0.2933 | 0.0158 ± 0.000311
298.15 K, x1 = 0.3149 | 0.00142 ± 0.000201
298.15 K, x1 = 0.3361 | -0.0125 ± 0.000287
298.15 K, x1 = 0.3603 | -0.0289 ± 0.000406
298.15 K, x1 = 0.3833 | -0.0433 ± 0.000526
298.15 K, x1 = 0.4094 | -0.0581 ± 0.000645
298.15 K, x1 = 0.4329 | -0.0703 ± 0.000741
298.15 K, x1 = 0.4593 | -0.08198 ± 0.000813
298.15 K, x1 = 0.4892 | -0.09345 ± 0.000908
298.15 K, x1 = 0.5141 | -0.1009 ± 0.00098
298.15 K, x1 = 0.5417 | -0.1071 ± 0.00103
298.15 K, x1 = 0.5724 | -0.1116 ± 0.00105
298.15 K, x1 = 0.6068 | -0.1138 ± 0.00108
298.15 K, x1 = 0.6457 | -0.113 ± 0.00108
298.15 K, x1 = 0.6742 | -0.1107 ± 0.00105
298.15 K, x1 = 0.7053 | -0.1052 ± 0.001
298.15 K, x1 = 0.7395 | -0.09728 ± 0.000956
298.15 K, x1 = 0.7771 | -0.08676 ± 0.00086
298.15 K, x1 = 0.7969 | -0.0805 ± 0.000813
298.15 K, x1 = 0.8176 | -0.0727 ± 0.000741
298.15 K, x1 = 0.8395 | -0.0641 ± 0.000693
298.15 K, x1 = 0.8626 | -0.0543 ± 0.000621
298.15 K, x1 = 0.887 | -0.0445 ± 0.000526
298.15 K, x1 = 0.9128 | -0.0332 ± 0.000454
298.15 K, x1 = 0.9401 | -0.0211 ± 0.000359
298.15 K, x1 = 0.9691 | -0.00755 ± 0.000263
303.15 K, x1 = 0.2439 | 0.0421 ± 0.000502
303.15 K, x1 = 0.2588 | 0.0373 ± 0.000478
303.15 K, x1 = 0.2756 | 0.0294 ± 0.000406
303.15 K, x1 = 0.2947 | 0.0165 ± 0.000311
303.15 K, x1 = 0.3133 | 0.00311 ± 0.000213
303.15 K, x1 = 0.3344 | -0.0118 ± 0.000287
303.15 K, x1 = 0.3586 | -0.0282 ± 0.000406
303.15 K, x1 = 0.3815 | -0.043 ± 0.000526
303.15 K, x1 = 0.4076 | -0.0583 ± 0.000645
303.15 K, x1 = 0.4311 | -0.0707 ± 0.000741
303.15 K, x1 = 0.4575 | -0.0829 ± 0.000837
303.15 K, x1 = 0.4873 | -0.09441 ± 0.000932
303.15 K, x1 = 0.5122 | -0.1021 ± 0.00098
303.15 K, x1 = 0.5398 | -0.1087 ± 0.00103
303.15 K, x1 = 0.5706 | -0.1138 ± 0.00108
303.15 K, x1 = 0.605 | -0.1166 ± 0.0011
303.15 K, x1 = 0.644 | -0.1169 ± 0.0011
303.15 K, x1 = 0.6725 | -0.1147 ± 0.00108
303.15 K, x1 = 0.7038 | -0.1107 ± 0.00105
303.15 K, x1 = 0.7381 | -0.104 ± 0.001
303.15 K, x1 = 0.7758 | -0.09393 ± 0.000908
303.15 K, x1 = 0.7957 | -0.08795 ± 0.00086
303.15 K, x1 = 0.8165 | -0.081 ± 0.000813
303.15 K, x1 = 0.8385 | -0.0729 ± 0.000765
303.15 K, x1 = 0.8617 | -0.0643 ± 0.000693
303.15 K, x1 = 0.8862 | -0.055 ± 0.000621
303.15 K, x1 = 0.9122 | -0.0435 ± 0.000526
303.15 K, x1 = 0.9397 | -0.0304 ± 0.00043
303.15 K, x1 = 0.9689 | -0.0157 ± 0.000311
308.15 K, x1 = 0.214 | 0.0641 ± 0.000693
308.15 K, x1 = 0.2281 | 0.0612 ± 0.000669
308.15 K, x1 = 0.2422 | 0.0562 ± 0.000621
308.15 K, x1 = 0.2581 | 0.0454 ± 0.000526
308.15 K, x1 = 0.2762 | 0.0311 ± 0.00043
308.15 K, x1 = 0.297 | 0.0144 ± 0.000311
308.15 K, x1 = 0.3176 | -0.00142 ± 0.000201
308.15 K, x1 = 0.3411 | -0.0193 ± 0.000335
308.15 K, x1 = 0.3636 | -0.0349 ± 0.000454
308.15 K, x1 = 0.3892 | -0.0516 ± 0.000574
308.15 K, x1 = 0.4124 | -0.065 ± 0.000693
308.15 K, x1 = 0.4385 | -0.0782 ± 0.000789
308.15 K, x1 = 0.4682 | -0.0913 ± 0.000884
308.15 K, x1 = 0.493 | -0.1001 ± 0.000956
308.15 K, x1 = 0.5207 | -0.1083 ± 0.00103
308.15 K, x1 = 0.5517 | -0.1147 ± 0.00108
308.15 K, x1 = 0.5866 | -0.1193 ± 0.00112
308.15 K, x1 = 0.6262 | -0.1207 ± 0.00112
308.15 K, x1 = 0.6554 | -0.1195 ± 0.00112
308.15 K, x1 = 0.6876 | -0.1164 ± 0.0011
308.15 K, x1 = 0.723 | -0.1104 ± 0.00105
308.15 K, x1 = 0.7622 | -0.1016 ± 0.00098
308.15 K, x1 = 0.7829 | -0.09632 ± 0.000932
308.15 K, x1 = 0.8048 | -0.08987 ± 0.000884
308.15 K, x1 = 0.8278 | -0.0825 ± 0.000837
